Experiments:
tyrosinase [1] = test: Tyrosinase-inhibiting activity; assay type: biochemical, mushroom; settings: for IC50: mushroom tyrosinase, tyrosine substrate, pH 6.8, 37° C., 10 minutes, absorbance at 475 nm
Experimental: As an enzyme, the tyrosinase, which was extracted from mushroom and produced by SIGMA was purchased. Tyrosine, a substrate was dissolved into distilled water to a concentration of 0.3 mg/ml and each 1.0 ml of the solution was placed into a test tube. […] Ethanol and water were used to dilute the test compounds. As a control, 0.9 ml of 1:1 mixture of ethanol and water was used. […] The test tube was quickly cooled in an ice water bath to stop the reaction, and the absorbance was measured at 475 nm. […] From the inhibitions(%) of tyrosinase by a series of dilutions of test compounds, IC50, i.e., a concentration of test compound which inhibit the tyrosinase by 50% was calculated for each test compound.

[2] = DPPH (diphenylpicrylhydrazyl) radical-scavenging test; settings: 100 μM DPPH in ethanol, 37° C., 30 minutes, 515 nm
Experimental: Harmful radicals-scavenging activity of the compounds of Examples 1 through 6 were compared with those of conventional anti-oxidants by using DPPH(diphenylpicrylhydrazyl) radical-scavenging test as follows:
DPPH was dissolved into ethanol to a concentration of 100 μM. A series of dilutions of compounds of Examples 1 through 6, vitamin C, vitamin E or hydroquinone were prepared.
Ethanol and water were used to dilute the test compounds. As a control, 1:1 mixture of ethanol and water was used. The series of dilutions of each test compound were mixed with 1,900 μl of DPPH solution and the dilution solvent was added to 2.0 ml. The resulting mixture was reacted in a 37° C. incubator for 30 minutes. The absorbance was measured at 515 nm. The radical-scavenging activities of the compounds of Examples 1 through 6 and conventional anti-oxidants were calculated by employing the following equation: [formula]
From the radical scavenging activity(%) by a series of dilutions of test compounds, IC50, i.e., a concentration of test compound which scavenge the radical, DPPH by 50% was calculated for each test compound.

human skin = test: human body patch test (skin safety); assay type: in vivo; settings: for number of positive subject/the number of total subjects, 48 hours later / number of positive subject/the number of total subjects, 96 hours later: 0.2 wt % in cream, 20 μl finn chamber on brachium; for safety to human skin (in words): patch test conclusion
Experimental: In order to examine the safety of the compounds of Examples 1 through 6, the human body patch test was carried out as follows:
The brachium of thirty(30) healthy volunteers (15 females and 15 males) was thoroughly washed with 70% ethanol and applied with a finn chamber containing 20 μl of a conventional creamy preparation incorporating 0.2 wt % of one of the compound of Examples 1 to 6. The finn chamber was thoroughly bonded to the brachium using an adhesive tape. 48 hours later, the tape and chamber were removed, and the adherent site of the arm was wiped with a gauze to remove the remaining preparation and observed for redness(erythma), swelling, and papuol. 48 hours later, the site was examined again.
The results are shown in terms of the number of positive subject/the number of total subjects.

tyrosinase [3] = settings: background, known activity; cited from earlier work

| Compound | IC50 (tyrosinase [1]) [µM] | IC50 [2] [µM] | tyrosinase-inhibiting activity (in words) (tyrosinase [1]) | number of positive subject/the number of total subjects, 48 hours later (human skin) | number of positive subject/the number of total subjects, 96 hours later (human skin) | safety to human skin (in words) (human skin) | skin response after 96 hours (in words) (human skin; preparation with 0.2 wt % of compound, 96 hours) | tyrosinase inhibition (in words, prior art) (tyrosinase [3]) |
| --- | --- | --- | --- | --- | --- | --- | --- | --- |
| O=C(OCc1cc(=O)c(O)co1)c1cccc(O)c1 [Example 3, 2-(3-hydroxybenzoyl)oxymethyl-5-hydroxy-4H-pyran-4-one] | 15 | 2030 | – | 1/30 | 1/30 | considered to be safe | only one(1) among 30 subjects show a weak positive response | – |
| O=C(OCc1cc(=O)c(O)co1)c1ccc(O)c(O)c1 [Example 4, 2-(3,4-dihydroxybenzoyl)oxymethyl-5-hydroxy-4H-pyran-4-one] | 4 | 11.5 | strongest tyrosinase-inhibiting activity | 1/30 | 0/30 | safe to the human skin | – | – |
| O=C(OCc1cc(=O)c(O)co1)c1ccc(O)cc1O [Example 6, 2-(2,4-dihydroxybenzoyl)oxymethyl-5-hydroxy-4H-pyran-4-one] | 6 | 15 | strongest tyrosinase-inhibiting activity | 0/30 | 0/30 | safe to the human skin | – | – |
| Oc1ccc(O)cc1 [Hydroquinone, reference compound] | – | 25.4 | – | – | – | – | – | – |
| O=c1cc(CO)occ1O [Kojic acid] | – | – | – | – | – | – | – | strongly inhibiting the action of tyrosinase |
| O=C1O[C@H]([C@@H](O)CO)C(O)=C1O [Vitamin C, reference compound] | – | 29.2 | – | – | – | – | – | – |

Further compounds by falling IC50 [2], results first:

| IC50 (tyrosinase [1]) [µM] | IC50 [2] [µM] | tyrosinase-inhibiting activity (in words) (tyrosinase [1]) | Compound | number of positive subject/the number of total subjects, 48 hours later (human skin) | number of positive subject/the number of total subjects, 96 hours later (human skin) | safety to human skin (in words) (human skin) | skin response after 96 hours (in words) (human skin; preparation with 0.2 wt % of compound, 96 hours) | tyrosinase inhibition (in words, prior art) (tyrosinase [3]) |
| --- | --- | --- | --- | --- | --- | --- | --- | --- |
| 15 | 2230 | – | O=C(OCc1cc(=O)c(O)co1)c1ccccc1O [Example 2, 2-(2-hydroxybenzoyl)oxymethyl-5-hydroxy-4H-pyran-4-one] | 2/30 | 0/30 | safe to the human skin | – | – |
| 10 | 1910 | – | O=C(OCc1cc(=O)c(O)co1)c1ccc(O)cc1 [Example 1, 2-(4-hydroxybenzoyl)oxymethyl-5-hydroxy-4H-pyran-4-one] | 0/30 | 0/30 | safe to the human skin | – | – |
| – | 34.8 | – | tocopherol [Vitamin E, reference compound] | – | – | – | – | – |
| 14 | 11.3 | – | O=C(OCc1cc(=O)c(O)co1)c1cccc(O)c1O [Example 5, 2-(2,3-dihydroxybenzoyl)oxymethyl-5-hydroxy-4H-pyran-4-one] | 1/30 | 0/30 | safe to the human skin | – | – |
